Data on twelve compounds can be found in patent publication US6669951B2, “Compositions and methods for enhancing drug delivery across and into epithelial tissues” (CellGate, Inc., priority 1999, dated 2003).

Peptide text beside a SMILES is read from it. * marks the point of attachment. FITC = O=C1OC2(c3ccc(O)cc3Oc3cc(O)ccc32)c2ccc(NC(=S)*)cc21; Ahx = NCCCCCC(=O)O

For series [1], the system named is ear inflammation in Balb/c mice. Put plainly: Murine contact dermatitis (DNFB), ear inflammation. Type of series: in vivo, mouse. As for the experimental part:
Balb/c (6-7 weeks) mice were painted on the abdomen with 100 μl of 0.7% DNFB in acetone olive oil (95:5). Three days later both ears of the animals were restimulated with 0.5% DNFB in acetone. […] Ear inflammation was measured 24 hours after restimulation using a spring loaded caliper. The percent reduction of inflammation was calculated using the following formula […], where t=thickness of the treated ear, n=the thickness of a normal untreated ear, and u=thickness of an inflamed ear without any treatment. N=20 animals in each group.

The subject of another series is skin of nude mice. Put plainly: Penetration of biotinylated conjugates into skin of nude mice (streptavidin staining). The following applies: 1 mM-100 μM in PBS, nude mice, thirty, sixty, 120 minutes. As for the experimental part:
Samples (100 μl) were applied as a liquid without excipient, prevented from dispersing by a Vaseline™ barrier, and allowed to penetrate for fifteen minutes. At the end of this period the animal was sacrificed, the relevant sections of skin were excised, embedded in mounting medium (OCT), and frozen. Frozen sections (5 microns) were cut using a cryostat, collected on slides, and stained with fluorescently labeled streptavidin (Vector Laboratories, Burlingame, Calif.). The slides were fixed in acetone at 4° C. for ten minutes, air dried, soaked in PBS for five minutes, blocked with normal goat serum for five minutes, and washed with PBS for five minutes. The section was stained by incubation with fluorescently labeled streptavidin at 30 μg/ml for thirty minutes, washed with PBS, counterstained with propidium iodide (1 μg/ml) for two minutes, and the section was mounted with Vectashield™ mounting media. Slides were analyzed by fluorescent microscopy. Parallel studies were done using streptavidin-horse radish peroxidase rather than fluorescein-streptavidin. The biotinylated peptide was visualized by treatment of the sections with the horseradish peroxidase substrate diaminobenzadine, and visualization with light microscopy.
Alternatively, sample (100 μl) was applied as a liquid without excipient and prevented from evaporating by wrapping plastic wrap over the sample sealed with Vaseline™. […] At the end of this period animal was sacrificed, the relevant section of skin was excised, embedded in mounting medium (OCT) and frozen. […] Slides were analyzed by fluorescent microscopy.
At the end of this period animal was sacrificed, the relevant section of skin was excised, embedded in mounting medium (OCT) and frozen. […] Slides were analyzed by fluorescent microscopy
(§1) At the end of this period animal was sacrificed, the relevant section of skin was excised, embedded in mounting medium (OCT) and frozen. […] Slides were analyzed by fluorescent microscopy.
as §1

Series [2] deals with Jurkat cells. Put plainly: Cellular uptake kinetics assay (Michaelis-Menton). The format is cell-based, human. The arrangement: Vmax: unit not given here. The following applies: for Km / Vmax / rate of entering cells, fold faster than Tat47-59: Jurkat cells; for Km / Vmax: incubation 30, 60, 120, 240 seconds, 3° C.; for rate of entering cells, fold faster than Tat47-59: from Km values. As for the experimental part:
(§2) The accuracy of this method for determining concentration was established by weighing selected samples and dissolving them in a known amount of PBS buffer. The concentrations determined by UV spectroscopy correlated with the amounts weighed out manually. Jurkat cells (human T cell line), murine B cells (CH27), or human PBL cells were grown in 10% fetal calf serum and DMEM and each of these were used for cellular uptake experiments. […] The microtiter plates were centrifuged and the cells were isolated, washed with cold PBS (3×250 μL), incubated with 0.05% trypsin/0.53 mM EDTA at 37° C. for 5 min, washed with cold PBS, and resuspended in PBS containing 0.1% propidium iodide. The cells were analyzed using fluorescent flow cytometry (FACScan, Becton Dickinson) and cells staining with propidium iodide were excluded from the analysis. The data presented is the mean fluorescent signal for the 5000 cells collected.
Cellular Uptake Kinetics Assay. The assays were performed as previously described except the cells were incubated for 0.5, 1, 2, and 4 min at 4° C. in triplicate in 2% FCS/PBS (50 μl) in microtiter plates (96 well). The reactions were quenched by diluting the samples into 2% FCS/PBS (5 mL). The assays were then worked up and analyzed by fluorescent flow cytometry as previously described.
The rates of cellular uptake were determined after incubation (3° C.) of the peptides in Jurkat cells for 30, 60, 120, and 240 seconds (Table 1).

Series [3] relates to Jurkat cells. Put plainly: FACS cellular uptake assay. The following applies: for cellular uptake relative to Tat49-57: Jurkat cells, 2% FCS; for additional loss of intracellular fluorescence from the one amino acid truncated analogs: further deletion of one residue. The format is cell-based, human. As for the experimental part: as §2
Inhibition of Cellular Uptake with Sodium Azide. The assays were performed as previously described with the exception that the cells used were preincubated for 30 min with 0.5% sodium azide in 2% FCS/PBS buffer prior to the addition of fluorescent peptides and the cells were washed with 0.5% sodium azide in PBS buffer. All of the cellular uptake assays were run in parallel in the presence and absence of sodium azide.
To determine the structural requirements for the cellular uptake of short arginine-rich peptides, a series of fluorescently-labeled truncated analogues of Tat49-57 were synthesized using standard solid-phase chemistry. See, e.g., Atherton, E. et al. SOLID-PHASE PEPTIDE […] (IRL: Oxford, Engl. 1989). A fluorescein moiety was attached via an aminohexanoic acid spacer on the amino termini. The ability of these fluorescently labeled peptides to enter Jurkat cells was then analyzed using fluorescent activated cell sorting (FACS). The peptide constructs tested were Tat49-57 (Fl-ahx-[…]; SEQ ID NO:8): Tat49-56 (Fl-ahx-[…]; SEQ ID NO:9), Tat49-55 (Fl-ahx-RKKRRQR; SEQ ID NO: 10), Tat50-57 (Fl-ahx-[…]; SEQ ID NO: 11), and Tat51-57 (Fl-ahx-KRRQRRR; SEQ ID NO: 12). Differentiation between cell surface binding and internalization was accomplished throughout by running a parallel set of assays in the presence and absence of sodium azide. Because sodium azide inhibits energy-dependent cellular uptake but not cell surface binding, the difference in fluorescence between the two assays provided the amount of fluorescence resulting from internalization.

“R7 (SEQ ID NO:3): heptamer that consists of L-arginine residues; SEQ ID NO:3 (RRRRRRR)”: the “reduction in ear inflammation” value in series [1] (1% topical, 1, 5 and 20 h after restimulation, measured 24 hours) is given as “No reduction of inflammation was observed”.

As to `CC(=O)O[C@H]1C(=O)[C@@]2(C)[C@H]([C@H](OC(=O)c3ccccc3)[C@]3(O)C[C@H](OC(=O)[C@H](OC(=O)NCCCC[C@H](NC(=O)[C@@H](CCCNC(=N)N)NC(=O)[C@@H](CCCNC(=N)N)NC(=O)[C@@H](CCCNC(=N)N)NC(=O)[C@@H](CCCNC(=N)N)NC(=O)[C@@H](CCCNC(=N)N)NC(=O)[C@@H](CCCNC(=N)N)NC(=O)[C@@H](CCCNC(=N)N)NC(=O)CCCCCNC(=O)CCCC[C@@H]4SC[C@@H]5NC(=O)N[C@@H]54)C(N)=O)[C@@H](NC(=O)c4ccccc4)c4ccccc4)C(C)=C1C3(C)C)[C@]1(OC(C)=O)CO[C@@H]1C[C@@H]2O` [B-aca-r7-K-taxol], the “penetration of drug conjugates into skin” value in the series on skin of nude mice is “effectively entered into and across the epidermis and into the dermis of the skin of nude mice”.

What is called Km is the substrate concentration at which the rate is half of its maximum. Consider `N=C(N)NCCC[C@H](NC(=O)[C@H](CCCNC(=N)N)NC(=O)[C@H](CCCNC(=N)N)NC(=O)[C@H](CCC(N)=O)NC(=O)[C@H](CCCNC(=N)N)NC(=O)[C@H](CCCNC(=N)N)NC(=O)[C@H](CCCCN)NC(=O)[C@H](CCCCN)NC(=O)[C@H](CCCNC(=N)N)NC(=O)CCCCCNC(=S)Nc1ccc2c(c1)C(=O)OC21c2ccc(O)cc2Oc2cc(O)ccc21)C(N)=O` [Tat49-57, reference compound], for which, in the series with Jurkat cells [2], the Km was 770 µM and the Vmax was 0.38. In addition, the “cellular uptake relative to Tat49-57” value with Jurkat cells [3] was “between that of R6 and R7”.

On to `N=C(N)NCCC[C@H](NC(=O)[C@H](CCCCN)NC(=O)[C@H](CCCCN)NC(=O)[C@H](CCCNC(=N)N)NC(=O)[C@H](CCCNC(=N)N)NC(=O)[C@H](CCC(N)=O)NC(=O)[C@H](CCCNC(=N)N)NC(=O)[C@H](CCCNC(=N)N)NC(=O)[C@H](CCCNC(=N)N)NC(=O)CCCCCNC(=S)Nc1ccc2c(c1)C(=O)OC21c2ccc(O)cc2Oc2cc(O)ccc21)C(N)=O` [Tat57-49], for which the “cellular uptake relative to Tat49-57” value in the series with Jurkat cells [3] is recorded as “more effective at entering Jurkat cells then Tat49-57”.

In the case of `CC1(C)O[C@@H]2C[C@H]3[C@@H]4CCC5=CC(=O)C=C[C@]5(C)[C@@]4(F)[C@@H](O)C[C@]3(C)[C@]2(C(=O)CO)O1` [triamcinolone acetonide, reference compound], the “reduction in ear inflammation” value in series [1] (0.1% topical) is on record as 34.1%±6.3.

Turning to `N=C(N)NCCC[C@H](NC(=O)[C@H](CCCNC(=N)N)NC(=O)[C@H](CCCNC(=N)N)NC(=O)[C@H](CCC(N)=O)NC(=O)[C@H](CCCNC(=N)N)NC(=O)[C@H](CCCNC(=N)N)NC(=O)[C@H](CCCCN)NC(=O)CCCCCNC(=S)Nc1ccc2c(c1)C(=O)OC21c2ccc(O)cc2Oc2cc(O)ccc21)C(N)=O` [Tat51-57, Fl-ahx-KRRQRRR] ({FITC-Ahx}-KRRQRRR-NH2), the “additional loss of intracellular fluorescence from the one amino acid truncated analogs” value with Jurkat cells [3] is “did not further diminish the amount of internalization”.

For `CC[C@H](C)[C@H](NC(=O)[C@H](CCCCN)NC(=O)[C@@H](NC(=O)[C@H](CCC(N)=O)NC(=O)[C@H](CCCNC(=N)N)NC(=O)CCCCCNC(=S)Nc1ccc2c(c1)C(=O)OC21c2ccc(O)cc2Oc2cc(O)ccc21)[C@@H](C)CC)C(=O)N[C@@H](Cc1c[nH]c2ccccc12)C(=O)N[C@@H](Cc1ccccc1)C(=O)N[C@@H](CCC(N)=O)C(=O)N[C@@H](CC(N)=O)C(=O)N[C@@H](CCCNC(=N)N)C(=O)N[C@@H](CCCNC(=N)N)C(=O)N[C@@H](CCSC)C(=O)N[C@@H](CCCCN)C(=O)N[C@@H](Cc1c[nH]c2ccccc12)C(=O)N[C@@H](CCCCN)C(=O)N[C@@H](CCCCN)C(N)=O` [Antennapedia43-58, reference compound], in the series on Jurkat cells [2], the Michaelis-Menten constant (Km) turned out to be 427 µM; the Vmax stood at 0.41; the “rate of entering cells, fold faster than Tat47-59” value is “approximately 2 fold”.

In the case of `N=C(N)NCCC[C@H](NC(=O)[C@H](CCCNC(=N)N)NC(=O)[C@H](CCCNC(=N)N)NC(=O)[C@H](CCCNC(=N)N)NC(=O)[C@H](CCCNC(=N)N)NC(=O)[C@H](CCCNC(=N)N)NC(=O)[C@H](CCCNC(=N)N)NC(=O)[C@H](CCCNC(=N)N)NC(=O)[C@H](CCCNC(=N)N)NC(=O)CCCCCNC(=S)Nc1ccc2c(c1)C(=O)OC21c2ccc(O)cc2Oc2cc(O)ccc21)C(N)=O` (single isomer, unassigned) [R9], the “Km values fold greater / fold better than Tat49-57” value in the series on Jurkat cells [2] (Discussion) is 30 fold. Further, in the series on Jurkat cells [2], the Michaelis-Menten constant (Km) was found to be 44 µM; the Vmax came out at 0.37; the “rate of entering cells, fold faster than Tat47-59” value is reported as around 20 fold.

Take `C[C@H](NC(=O)[C@H](CCCNC(=N)N)NC(=O)[C@H](CCCNC(=N)N)NC(=O)[C@H](CCCCN)NC(=O)[C@H](CCCCN)NC(=O)[C@H](CCCNC(=N)N)NC(=O)CCCCCNC(=S)Nc1ccc2c(c1)C(=O)OC21c2ccc(O)cc2Oc2cc(O)ccc21)C(=O)N[C@@H](CCCNC(=N)N)C(=O)N[C@@H](CCCNC(=N)N)C(=O)N[C@@H](CCCNC(=N)N)C(N)=O` [A-54] ({FITC-Ahx}-RKKRRARRR-NH2): the “cellular uptake relative to Tat49-57” value in the series on Jurkat cells [3] was “modest decrease in cellular internalization”.

Take `N=C(N)NCCC[C@H](NC(=O)[C@H](CCC(N)=O)NC(=O)[C@H](CCCNC(=N)N)NC(=O)[C@H](CCCNC(=N)N)NC(=O)[C@H](CCCCN)NC(=O)[C@H](CCCCN)NC(=O)[C@H](CCCNC(=N)N)NC(=O)CCCCCNC(=S)Nc1ccc2c(c1)C(=O)OC21c2ccc(O)cc2Oc2cc(O)ccc21)C(N)=O` [Tat49-55, Fl-ahx-RKKRRQR] ({FITC-Ahx}-RKKRRQR-NH2): in the series with Jurkat cells [3], the “additional loss of intracellular fluorescence from the one amino acid truncated analogs” value is reported as 60%.

For the compound `N=C(N)NCCC[C@@H](NC(=O)[C@@H](CCCCN)NC(=O)[C@@H](CCCCN)NC(=O)[C@@H](CCCNC(=N)N)NC(=O)[C@@H](CCCNC(=N)N)NC(=O)[C@@H](CCC(N)=O)NC(=O)[C@@H](CCCNC(=N)N)NC(=O)[C@@H](CCCNC(=N)N)NC(=O)[C@@H](CCCNC(=N)N)NC(=O)CCCCCNC(=S)Nc1ccc2c(c1)C(=O)OC21c2ccc(O)cc2Oc2cc(O)ccc21)C(N)=O` [d-Tat57-49, F1-ahx-rrrqrrkkr], the “cellular uptake relative to Tat49-57” value in the series with Jurkat cells [3] is “more effective at entering Jurkat cells then Tat49-57”.

Take `N=C(N)NCCC[C@@H](NC(=O)[C@@H](CCCNC(=N)N)NC(=O)[C@@H](CCCNC(=N)N)NC(=O)[C@@H](CCC(N)=O)NC(=O)[C@@H](CCCNC(=N)N)NC(=O)[C@@H](CCCNC(=N)N)NC(=O)[C@@H](CCCCN)NC(=O)[C@@H](CCCCN)NC(=O)[C@@H](CCCNC(=N)N)NC(=O)CCCCCNC(=S)Nc1ccc2c(c1)C(=O)OC21c2ccc(O)cc2Oc2cc(O)ccc21)C(N)=O` [d-Tat49-57, F1-ahx-rkkrrqrrr]: the “cellular uptake relative to Tat49-57” value with Jurkat cells [3] is recorded as “more effective at entering Jurkat cells then Tat49-57”.
